The target in experiment [1] is T1, Recombinant (1-346) HPK1 (h) (Homo sapiens, UniProt Q92918).
T1 construct: Recombinant (1-346) HPK1 (h) is incubated with 8 mM MOPS pH 7.0
T1 sequence (Q92918 1-346): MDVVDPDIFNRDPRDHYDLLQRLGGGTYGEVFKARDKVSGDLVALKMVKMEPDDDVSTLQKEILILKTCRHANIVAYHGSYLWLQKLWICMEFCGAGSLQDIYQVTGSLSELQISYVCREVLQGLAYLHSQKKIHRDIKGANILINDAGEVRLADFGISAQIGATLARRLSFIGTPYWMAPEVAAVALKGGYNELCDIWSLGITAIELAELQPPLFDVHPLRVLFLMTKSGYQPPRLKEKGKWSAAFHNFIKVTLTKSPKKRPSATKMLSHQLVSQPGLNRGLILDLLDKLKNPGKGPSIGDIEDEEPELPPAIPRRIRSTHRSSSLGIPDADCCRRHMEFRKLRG
The experiment can be described thus: HPK1 Human STE Kinase Enzymatic Radiometric Assay. The class given is biochemical. Conditions: read-out: HPK1 IC50 nM Range*. As for the experimental part: A stock solution of 10 mM of test compound is prepared in DMSO. The compound plate was prepared by 3-fold and 9-point serial dilutions. […] The reaction is initiated by The addition of the Mg/ATP mix. After incubation for 40 minutes at RT, the reaction is stopped by the addition of phosphoric acid to a concentration of 0.5%.

Another experiment addresses Lck (h) (Homo sapiens, UniProt P06239). The experiment can be described thus: Lck Human  Kinase Enzymatic Radiometric Assay. Conditions: read-out: Lck IC50 nM Range*. The class given is biochemical. The gist of the method: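 Substrate 33P-incorporation measured by scintillation counting after spotting on P30 filtermat and phosphoric acid washes. Human Lck reacted 40 min at RT in 50 mM Tris pH 7.5 with 10 mM MgAcetate, [gamma-33P]-ATP, 250 uM Cdc2 peptide, 0.1 mM EGTA and 0.1 mM Na3VO4.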

Chain of Lck (h) (P06239 whole entry): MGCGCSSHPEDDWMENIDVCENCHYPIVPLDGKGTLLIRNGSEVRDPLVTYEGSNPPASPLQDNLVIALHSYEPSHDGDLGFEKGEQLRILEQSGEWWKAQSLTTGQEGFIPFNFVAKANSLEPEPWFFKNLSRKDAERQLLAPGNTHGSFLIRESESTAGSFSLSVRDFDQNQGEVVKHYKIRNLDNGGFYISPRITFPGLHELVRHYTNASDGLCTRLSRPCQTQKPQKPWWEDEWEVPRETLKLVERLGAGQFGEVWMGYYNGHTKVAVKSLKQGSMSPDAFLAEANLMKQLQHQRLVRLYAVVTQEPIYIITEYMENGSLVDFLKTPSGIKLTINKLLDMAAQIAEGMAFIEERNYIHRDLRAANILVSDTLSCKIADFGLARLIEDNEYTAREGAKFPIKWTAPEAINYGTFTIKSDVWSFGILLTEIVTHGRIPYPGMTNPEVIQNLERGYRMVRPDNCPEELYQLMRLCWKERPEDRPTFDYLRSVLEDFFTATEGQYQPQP

By IC50 is commonly meant the concentration at which inhibition is half-maximal. For `CN1CCN(c2ccc(-c3cc(-c4ccc5c(c4)CCNC5=O)c(N)nc3Cl)cc2)CC1` [I-74, 6-(2-amino-6-chloro-5-(4-(4-methylpiperazin-1-yl)phenyl)pyridin-3-yl)-3,4-dihydroisoquinolin-1(2H)-one], the IC50 in experiment [1] was 11 to 100 nM; at Lck (h), above 1000 nM.

Take `CCN1CCN(c2ccc(-c3cc(-c4ccc5c(c4)CCNC5=O)c(N)nc3Cl)cc2)CC1` [I-75, 6-(2-amino-6-chloro-5-(4-(4-ethylpiperazin-1-yl)phenyl)pyridin-3-yl)-3,4-dihydroisoquinolin-1(2H)-one]: the IC50 is 11 to 100 nM in experiment [1] and above 1000 nM at Lck (h).

Take `CCN1CC=C(c2ccc(-c3cc(-c4ccc5c(c4)CCNC5=O)c(N)nc3F)cc2)CC1` [I-76, 6-(2-amino-5-(4-(1-ethyl-1,2,3,6-tetrahydropyridin-4-yl)phenyl)-6-fluoropyridin-3-yl)-3,4-dihydroisoquinolin-1(2H)-one]: the IC50 in experiment [1] is 0.1 to 10 nM; at Lck (h) it was above 1000 nM.

As for `CC(C)[C@H]1CN(c2ccc(-c3cc(-c4cc5c(cn4)C(=O)NCC5)c(N)nc3F)cc2)CCO1` [I-77, (S)-6-(2-amino-6-fluoro-5-(4-(2-isopropylmorpholino)phenyl)pyridin-3-yl)-3,4-dihydro-2,7-naphthyridin-1(2H)-one 2,2,2-trifluoroacetate], the IC50 in experiment [1] was 0.1 to 10 nM; on Lck (h) it was above 1000 nM.

As to `Nc1nc(F)c(-c2ccc(C3CCCN(CC(F)F)C3)cc2)cc1-c1ccc2c(c1)CCNC2=O` (centres unmarked) [I-78, 6-(2-amino-5-(4-(1-(2,2-difluoroethyl)piperidin-3-yl)phenyl)-6-fluoropyridin-3-yl)-3,4-dihydroisoquinolin-1(2H)-one], the results for the IC50 (in experiment [1]; at Lck (h)) were 0.1 to 10 nM and above 1000 nM, respectively.

As to `CC(C)N1CCC(c2ccc(-c3cc(-c4ccc5c(c4)CCNC5=O)c(N)nc3F)cc2)CC1` [I-79, 6-(2-amino-6-fluoro-5-(4-(1-isopropylpiperidin-4-yl)phenyl)pyridin-3-yl)-3,4-dihydroisoquinolin-1(2H)-one], the 50% inhibitory concentration (IC50) in experiment [1] is 0.1 to 10 nM; at Lck (h), above 1000 nM.

Turning to `CC(C)N1CCCC(c2ccc(-c3cc(-c4ccc5c(c4)CCNC5=O)c(N)nc3F)cc2)C1` (centres unmarked) [I-80, 6-(2-amino-6-fluoro-5-(4-(1-isopropylpiperidin-3-yl)phenyl)pyridin-3-yl)-3,4-dihydroisoquinolin-1(2H)-one], the IC50 was 0.1 to 10 nM in experiment [1] and above 1000 nM at Lck (h).

As to `CC(C)N1CC=C(c2ccc(-c3cc(-c4ccc5c(c4)CCNC5=O)c(N)nc3F)cc2)CC1` [I-81, 6-(2-amino-6-fluoro-5-(4-(1-isopropyl-1,2,3,6-tetrahydropyridin-4-yl)phenyl)pyridin-3-yl)-3,4-dihydroisoquinolin-1(2H)-one], the IC50 is 0.1 to 10 nM in experiment [1] and above 1000 nM on Lck (h).

As for `Nc1nc(F)c(-c2ccc(C3CCCN(CCO)C3)cc2)cc1-c1ccc2c(c1)CCNC2=O` (centres unmarked) [I-82, 6-(2-amino-6-fluoro-5-(4-(1-(2-hydroxyethyl)piperidin-3-yl)phenyl)pyridin-3-yl)-3,4-dihydroisoquinolin-1(2H)-one], the values for the IC50 (in experiment [1]; on Lck (h)) were 0.1 to 10 nM and above 1000 nM, respectively.

With `CC(C)(C)OC(=O)N1CCC(S(=O)(=O)c2ccc(-c3cc(-c4ccc5c(c4)CCNC5=O)c(N)nc3F)cc2)CC1` [I-83, tert-butyl 4-((4-(6-amino-2-fluoro-5-(1-oxo-1,2,3,4-tetrahydroisoquinolin-6-yl)pyridin-3-yl)phenyl)sulfonyl)piperidine-1-carboxylate], the results for the half-inhibitory concentration (IC50) (in experiment [1]; at Lck (h)) were 11 to 100 nM and above 1000 nM, respectively.

As for `Nc1nc(F)c(-c2ccc(S(=O)(=O)C3CNC3)cc2)cc1-c1ccc2c(c1)CCNC2=O` [I-84, 6-(2-amino-5-(4-(azetidin-3-ylsulfonyl)phenyl)-6-fluoropyridin-3-yl)-3,4-dihydroisoquinolin-1(2H)-one], the IC50 was 11 to 100 nM in experiment [1] and above 1000 nM at Lck (h).

Take `CCS(=N)(=O)c1ccc(-c2cc(-c3ccc4c(c3)CCNC4=O)c(N)nc2F)cc1` (centres unmarked) [I-85, 6-(2-amino-5-(4-(ethylsulfonimidoyl)phenyl)-6-fluoropyridin-3-yl)-3,4-dihydroisoquinolin-1(2H)-one]: the concentration for half-maximal inhibition (IC50) in experiment [1] was 11 to 100 nM; at Lck (h), above 1000 nM.

On to `CS(=N)(=O)c1ccc(-c2cc(-c3ccc4c(c3)CCNC4=O)c(N)nc2F)cc1` (centres unmarked) [I-86, 6-(2-amino-6-fluoro-5-(4-(S-methylsulfonimidoyl)phenyl)pyridin-3-yl)-3,4-dihydroisoquinolin-1(2H)-one], for which the IC50 in experiment [1] is 0.1 to 10 nM; at Lck (h), above 1000 nM.

Regarding `Nc1nc(F)c(-c2ccc(S(=O)(=O)C(F)(F)F)cc2)cc1-c1ccc2c(c1)CCNC2=O` [I-87, 6-(2-amino-6-fluoro-5-(4-((trifluoromethyl)sulfonyl)phenyl)pyridin-3-yl)-3,4-dihydroisoquinolin-1(2H)-one], the results for the half-inhibitory concentration (IC50) (in experiment [1]; on Lck (h)) were 11 to 100 nM and above 1000 nM, respectively.

Take `CC1CN(c2ccc(-c3cc(-c4ccc5c(c4)CCNC5=O)c(N)nc3F)cc2)CCN1C` (centres unmarked) [I-88, 6-(2-amino-5-(4-(3,4-dimethylpiperazin-1-yl)phenyl)-6-fluoropyridin-3-yl)-3,4-dihydroisoquinolin-1(2H)-one]: the results for the half-inhibitory concentration (IC50) (in experiment [1]; at Lck (h)) were 0.1 to 10 nM and above 1000 nM, respectively.

Turning to `Nc1nc(F)c(-c2ccc(C3CCCN(CC(F)(F)F)C3)cc2)cc1-c1ccc2c(c1)CCNC2=O` (centres unmarked) [I-89, 6-(2-amino-6-fluoro-5-(4-(1-(2,2,2-trifluoroethyl)piperidin-3-yl)phenyl)pyridin-3-yl)-3,4-dihydroisoquinolin-1(2H)-one], the IC50 in experiment [1] was 11 to 100 nM; on Lck (h), above 1000 nM.

Consider `Nc1nc(F)c(-c2ccc(C3CN(CC(F)(F)F)CCO3)cc2)cc1-c1ccc2c(c1)CCNC2=O` (centres unmarked) [I-90, 6-(2-amino-6-fluoro-5-(4-(4-(2,2,2-trifluoroethyl)morpholin-2-yl)phenyl)pyridin-3-yl)-3,4-dihydroisoquinolin-1(2H)-one], for which the IC50 in experiment [1] is 11 to 100 nM; at Lck (h), above 1000 nM.

For the compound `Nc1nc(F)c(-c2ccc(N3C[C@H]4COC[C@H]4C3)cc2)cc1-c1ccc2c(c1)CCNC2=O` [I-91, 6-(2-amino-6-fluoro-5-(4-((3aR,6aS)-tetrahydro-1H-furo[3,4-c]pyrrol-5(3H)-yl)phenyl)pyridin-3-yl)-3,4-dihydroisoquinolin-1(2H)-one], the IC50 in experiment [1] was 11 to 100 nM; on Lck (h), above 1000 nM.

For the compound `Nc1nc(F)c(-c2ccc(N3C[C@@H]4CCO[C@@H]4C3)cc2)cc1-c1ccc2c(c1)CCNC2=O` [I-92, 6-(2-amino-6-fluoro-5-(4-((3aS,6aS)-hexahydro-5H-furo[2,3-c]pyrrol-5-yl)phenyl)pyridin-3-yl)-3,4-dihydroisoquinolin-1(2H)-one], the IC50 in experiment [1] is 0.1 to 10 nM; at Lck (h), above 1000 nM.

With `Nc1nc(F)c(-c2ccc(C3CCCCN3CC(F)(F)F)cc2)cc1-c1ccc2c(c1)CCNC2=O` (centres unmarked) [I-93, 6-(2-amino-6-fluoro-5-(4-(1-(2,2,2-trifluoroethyl)piperidin-2-yl)phenyl)pyridin-3-yl)-3,4-dihydroisoquinolin-1(2H)-one], the values for the IC50 (in experiment [1]; on Lck (h)) were 11 to 100 nM and above 1000 nM, respectively.

For `Nc1nc(F)c(-c2ccc(O[C@H]3CCCNC3)cc2)cc1-c1ccc2c(c1)CCNC2=O` [I-94, (S)-6-(2-amino-6-fluoro-5-(4-(piperidin-3-yloxy)phenyl)pyridin-3-yl)-3,4-dihydroisoquinolin-1(2H)-one], the IC50 in experiment [1] is 0.1 to 10 nM; on Lck (h), above 1000 nM.

With `CC(C)N1CCN(c2ccc(-c3cc(-c4cc5c(cc4F)C(=O)NCC5)c(N)nc3F)cc2)CC1` [I-95, 6-(2-amino-6-fluoro-5-(4-(4-isopropylpiperazin-1-yl)phenyl)pyridin-3-yl)-7-fluoro-3,4-dihydroisoquinolin-1(2H)-one], the IC50 is 0.1 to 10 nM in experiment [1] and above 1000 nM at Lck (h).

Regarding `C[C@@H]1CN(c2ccc(-c3cc(-c4ccc5c(c4)CCNC5=O)c(N)nc3F)cc2)C[C@H](C)N1C` [I-96, 6-(2-amino-6-fluoro-5-(4-((3R,5S)-3,4,5-trimethylpiperazin-1-yl)phenyl)pyridin-3-yl)-3,4-dihydroisoquinolin-1(2H)-one], the values for the concentration for half-maximal inhibition (IC50) (in experiment [1]; on Lck (h)) were 0.1 to 10 nM and above 1000 nM, respectively.

On to `C[C@H]1CN(c2ccc(-c3cc(-c4ccc5c(c4)CCNC5=O)c(N)nc3F)cc2)C[C@H](C)N1C` [I-97, 6-(2-amino-6-fluoro-5-(4-((3S,5S)-3,4,5-trimethylpiperazin-1-yl)phenyl)pyridin-3-yl)-3,4-dihydroisoquinolin-1(2H)-one], for which the IC50 in experiment [1] was 0.1 to 10 nM; at Lck (h), above 1000 nM.

In the case of `Nc1nc(F)c(-c2ccc(S(=O)(=O)N3CCOCC3)cc2)cc1-c1ccc2c(c1)CCNC2=O` [I-98, 6-(2-amino-6-fluoro-5-(4-(morpholinosulfonyl)phenyl)pyridin-3-yl)-3,4-dihydroisoquinolin-1(2H)-one], the half-maximal inhibitory concentration (IC50) in experiment [1] is 11 to 100 nM; at Lck (h), above 1000 nM.

Values taken from patent publication US20240343704A1, “HALO-SUBSTITUTED AMINO PYRIDINE COMPOUNDS AS INHIBITORS OF THE HAEMATOPOIETIC PROGENITOR KINASE 1 (HPK1)” (priority 2021, published 2024).
